Measured values as given in the supplement of paper PMC10307832.

Tests used:
Test in all cases: relative viability (nuclei count vs DMSO), 5 days (fraction); higher = more cells survive
[1] = compound: N=C1NC(=O)/C(=C/c2ccc(O)cc2)S1 [Mirin] + Cc1nc(NC(=O)N2CCC[C@H]2C(N)=O)sc1-c1ccnc(C(C)(C)C(F)(F)F)c1 [Alpelisib] (partner 2 µM)
In short: (§1)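 Dosing by pin tool came one day after lung cancer cell lines were seeded in 1536-well plates, using either one drug or a fixed anchor-drug dose plus five library-drug doses (not always all listed) in √10 steps. After 5 days, nuclei were counted on 4× images. Relative viability is treated-well nuclei count divided by vehicle-well nuclei count, and values are medians of duplicate plates.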

[2] = compound: N=C1NC(=O)/C(=C/c2ccc(O)cc2)S1 [Mirin] + C[C@@H](Oc1cc(-c2cnn(C3CCNCC3)c2)cnc1N)c1c(Cl)ccc(F)c1Cl [Crizotinib] (partner 1 µM)
In short: as §1

[3] = compound: N=C1NC(=O)/C(=C/c2ccc(O)cc2)S1 [Mirin] + COc1cccc2cc(-c3nc([C@H]4CC[C@H](C(=O)O)CC4)n4ncnc(N)c34)[nH]c12 [OSI-027] (partner 0.5 µM)
In short: as §1

[4] = compound: N=C1NC(=O)/C(=C/c2ccc(O)cc2)S1 [Mirin] + COc1cc2c(Oc3ccc(NC(=O)C4(C(=O)Nc5ccc(F)cc5)CC4)cc3F)ccnc2cc1OCCCN1CCOCC1 [Foretinib] (partner 0.25 µM)
In short: as §1

Cell Line: HARA
- relative viability ([1]; first compound 0.25 µM): 0.889
- relative viability ([1]; first compound 0.7906 µM): 0.968
- relative viability ([1]; first compound 2.5 µM): 0.858
- relative viability ([1]; first compound 7.906 µM): 0.805
- relative viability ([1]; first compound 25 µM): 0.612
- relative viability ([2]; first compound 0.25 µM): 1.06
- relative viability ([2]; first compound 0.7906 µM): 1.15
- relative viability ([2]; first compound 2.5 µM): 1.05
- relative viability ([2]; first compound 7.906 µM): 0.995
- relative viability ([2]; first compound 25 µM): 1.14
- relative viability ([3]; first compound 0.25 µM): 0.491
- relative viability ([3]; first compound 2.5 µM): 0.56
- relative viability ([3]; first compound 7.906 µM): 0.356
- relative viability ([3]; first compound 25 µM): 0.437
- relative viability ([4]; first compound 0.25 µM): 0.817
- relative viability ([4]; first compound 2.5 µM): 0.845
- relative viability ([4]; first compound 7.906 µM): 0.902
- relative viability ([4]; first compound 25 µM): 0.708

Cell Line: HCC-15
- relative viability ([1]; first compound 0.25 µM): 0.851
- relative viability ([1]; first compound 0.7906 µM): 0.859
- relative viability ([1]; first compound 2.5 µM): 0.928
- relative viability ([1]; first compound 7.906 µM): 0.798
- relative viability ([1]; first compound 25 µM): 0.593
- relative viability ([2]; first compound 0.25 µM): 0.841
- relative viability ([2]; first compound 0.7906 µM): 0.866
- relative viability ([2]; first compound 2.5 µM): 0.888
- relative viability ([2]; first compound 7.906 µM): 0.803
- relative viability ([2]; first compound 25 µM): 0.802
- relative viability ([3]; first compound 0.25 µM): 0.81
- relative viability ([3]; first compound 0.7906 µM): 0.557
- relative viability ([3]; first compound 2.5 µM): 0.614
- relative viability ([3]; first compound 7.906 µM): 0.585
- relative viability ([3]; first compound 25 µM): 0.466
- relative viability ([4]; first compound 0.25 µM): 1.1
- relative viability ([4]; first compound 0.7906 µM): 1
- relative viability ([4]; first compound 2.5 µM): 1.06
- relative viability ([4]; first compound 7.906 µM): 0.819
- relative viability ([4]; first compound 25 µM): 0.882

Cell Line: HCC-44
- relative viability ([1]; first compound 0.25 µM): 0.852
- relative viability ([1]; first compound 0.7906 µM): 0.879
- relative viability ([1]; first compound 2.5 µM): 0.806
- relative viability ([1]; first compound 7.906 µM): 0.762
- relative viability ([1]; first compound 25 µM): 0.705
- relative viability ([2]; first compound 0.25 µM): 0.817
- relative viability ([2]; first compound 0.7906 µM): 0.85
- relative viability ([2]; first compound 2.5 µM): 0.783
- relative viability ([2]; first compound 7.906 µM): 0.795
- relative viability ([2]; first compound 25 µM): 1.07
- relative viability ([3]; first compound 0.25 µM): 0.441
- relative viability ([3]; first compound 0.7906 µM): 0.491
- relative viability ([3]; first compound 2.5 µM): 0.483
- relative viability ([3]; first compound 7.906 µM): 0.428
- relative viability ([3]; first compound 25 µM): 0.485

Cell Line: HCC-78
- relative viability ([1]; first compound 0.25 µM): 0.389
- relative viability ([1]; first compound 0.7906 µM): 0.393
- relative viability ([1]; first compound 2.5 µM): 0.366
- relative viability ([1]; first compound 7.906 µM): 0.291
- relative viability ([1]; first compound 25 µM): 0.298
- relative viability ([2]; first compound 0.25 µM): 0.362
- relative viability ([2]; first compound 0.7906 µM): 0.381
- relative viability ([2]; first compound 2.5 µM): 0.371
- relative viability ([2]; first compound 7.906 µM): 0.386
- relative viability ([2]; first compound 25 µM): 0.41
- relative viability ([3]; first compound 0.25 µM): 0.37
- relative viability ([3]; first compound 0.7906 µM): 0.366
- relative viability ([3]; first compound 2.5 µM): 0.419
- relative viability ([3]; first compound 7.906 µM): 0.292
- relative viability ([3]; first compound 25 µM): 0.349
- relative viability ([4]; first compound 0.25 µM): 0.538
- relative viability ([4]; first compound 0.7906 µM): 0.636
- relative viability ([4]; first compound 2.5 µM): 0.535
- relative viability ([4]; first compound 7.906 µM): 0.615
- relative viability ([4]; first compound 25 µM): 0.584

Cell Line: HCC-366
- relative viability ([1]; first compound 0.25 µM): 0.34
- relative viability ([1]; first compound 0.7906 µM): 0.37
- relative viability ([1]; first compound 2.5 µM): 0.545
- relative viability ([1]; first compound 7.906 µM): 0.296
- relative viability ([1]; first compound 25 µM): 0.253
- relative viability ([2]; first compound 0.25 µM): 0.464
- relative viability ([2]; first compound 0.7906 µM): 0.62
- relative viability ([2]; first compound 2.5 µM): 0.44
- relative viability ([2]; first compound 7.906 µM): 0.443
- relative viability ([2]; first compound 25 µM): 0.413
- relative viability ([3]; first compound 0.25 µM): 0.974
- relative viability ([3]; first compound 2.5 µM): 0.919
- relative viability ([3]; first compound 7.906 µM): 0.711
- relative viability ([3]; first compound 25 µM): 0.882
- relative viability ([4]; first compound 0.25 µM): 0.855
- relative viability ([4]; first compound 2.5 µM): 0.888
- relative viability ([4]; first compound 7.906 µM): 0.997
- relative viability ([4]; first compound 25 µM): 0.869

Cell Line: HCC-827
- relative viability ([1]; first compound 0.25 µM): 1.02
- relative viability ([1]; first compound 0.7906 µM): 1.02
- relative viability ([1]; first compound 2.5 µM): 0.958
- relative viability ([1]; first compound 7.906 µM): 1.01
- relative viability ([1]; first compound 25 µM): 1.12
- relative viability ([2]; first compound 0.25 µM): 0.98
- relative viability ([2]; first compound 0.7906 µM): 0.961
- relative viability ([2]; first compound 2.5 µM): 0.973
- relative viability ([2]; first compound 7.906 µM): 0.885
- relative viability ([2]; first compound 25 µM): 1.07
- relative viability ([3]; first compound 0.25 µM): 0.785
- relative viability ([3]; first compound 0.7906 µM): 0.71
- relative viability ([3]; first compound 2.5 µM): 0.748
- relative viability ([3]; first compound 7.906 µM): 0.737
- relative viability ([3]; first compound 25 µM): 0.744
- relative viability ([4]; first compound 0.25 µM): 1.03
- relative viability ([4]; first compound 0.7906 µM): 1.08
- relative viability ([4]; first compound 2.5 µM): 1.06
- relative viability ([4]; first compound 7.906 µM): 1.06
- relative viability ([4]; first compound 25 µM): 1.23

Cell Line: IA-LM
- relative viability ([1]; first compound 0.25 µM): 0.668
- relative viability ([1]; first compound 0.7906 µM): 0.768
- relative viability ([1]; first compound 2.5 µM): 0.797
- relative viability ([1]; first compound 7.906 µM): 0.434
- relative viability ([1]; first compound 25 µM): 0.812
- relative viability ([2]; first compound 0.25 µM): 0.813
- relative viability ([2]; first compound 0.7906 µM): 0.916
- relative viability ([2]; first compound 2.5 µM): 0.744
- relative viability ([2]; first compound 7.906 µM): 0.849
- relative viability ([2]; first compound 25 µM): 0.981
- relative viability ([4]; first compound 0.25 µM): 1.12
- relative viability ([4]; first compound 0.7906 µM): 1.07
- relative viability ([4]; first compound 2.5 µM): 1.23
- relative viability ([4]; first compound 7.906 µM): 0.757
- relative viability ([4]; first compound 25 µM): 1.09
